The values below come from article PMC3487892, “The Pentameric Channel of COMPcc in Complex with Different Fatty Acids” (PLoS ONE, 2012).

Changes are numbered by the printed parent chain.

Test [1] concerns COMPcc. Also on record: method as in PMID 9736606. As to conditions: ligand bound in the channel; ref [9]; cited from earlier work.
Test [2] concerns the target T1, COMPcc (Rattus norvegicus, UniProt P35444).
T1 sequence (P35444 27-72): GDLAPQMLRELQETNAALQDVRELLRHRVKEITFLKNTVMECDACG
Put plainly: Displacement of CPA from the CPA-COMPcc complex by fatty acids (fluorescence). The test is classed as binding. As to conditions: for Kd: calculated from [FA]1/2 of CPA displacement; for Kd / IC50: 1× PBS pH 7.4, 25°C, triplicate; for Interaction Free Energy: from Kd of CPA displacement; for IC50: read-out: [FA]1/2, fatty acid concentration that halves the CPA fluorescence, COMPcc ~0.1 µM, CPA 0.4 µM.
Protocol: Steady-state fluorescence spectra were measured on a Fluorolog-3 Horiba Jobin Yvon spectrofluorometer (Edison, NJ). The sample was held in a 10×10 mm quartz cuvette equipped with a continuous stirrer. The data were analyzed with Sigmaplot (Point Richmond, CA) software. The reaction was thermostatically controlled at 25°C by a Jeio-Tech refrigerating bath circulator (Des Plaines, IL). All fluorescence data were collected in 1× PBS buffer, pH 7.4. From the fluorescence enhancement profile of CPA, the fraction of ligand bound protein (f) can be calculated using: [drawing 1] (1) where F0 is the fluorescence of protein sample when no CPA has been added, F is the protein fluorescence at any given CPA concentration and F420 is the protein fluorescence in the presence of 3 µM of CPA. In the case of one ligand binding site, f follows a hyperbolic dependence upon ligand concentration given by: [drawing 2] (2) where B is a constant, Kd is the dissociation constant and [L]free is the concentration of free ligand (in this case CPA).
The probe CPA can also be used to characterize the binding of other fatty acids to COMPcc. The addition of fatty acids (FA) to the CPA-COMPcc complex will displace CPA leading to a decrease in fluorescence. […] In the case where there is no FA added the concentrations are [COMPcc] = [COMPcc]0 and [CPA]≈[CPA]0 = 0.4 µM. In this case the concentration of the CPA-COMPcc complex will be equal to: [drawing 5] (5) At [drawing 6] ,the concentration of the COMPcc-CPA complex is equal to one half the initial: [drawing 7] (6) Writing a mass balance for COMPcc we obtain: [drawing 8] (7) When [drawing 9] : [drawing 10] (8) The dissociation constant [drawing 11] can be calculated using the value of [FA]1/2 (the amount of fatty acid that reduces the CPA fluorescence to half its original value.

The target in test [3] is T2, COMPcc (Rattus norvegicus, UniProt P35444, G27M/H53Q/R54Q).
T2 construct: The coiled-coil domain of rat COMPcc comprising residues 27–72 was prepared as described previously; made in house; host or cells: E. coli
T2 sequence (P35444 27-72 G27M/H53Q/R54Q): T1 sequence (P35444 27-72) with G1M, H27Q, R28Q
Put plainly: Fluorescence enhancement of cis-parinaric acid (CPA) on binding to COMPcc. As to the method:
The coiled-coil domain of rat COMPcc comprising residues 27–72 was prepared as described previously. Purified COMPcc was dialyzed against PBS pH 7.4 and concentrated to 10 mg/mL using an 10 kDa Amicon membrane (Millipore).
Steady-state fluorescence spectra were measured on a Fluorolog-3 Horiba Jobin Yvon spectrofluorometer (Edison, NJ). The sample was held in a 10×10 mm quartz cuvette equipped with a continuous stirrer. The data were analyzed with Sigmaplot (Point Richmond, CA) software. The reaction was thermostatically controlled at 25°C by a Jeio-Tech refrigerating bath circulator (Des Plaines, IL). All fluorescence data were collected in 1× PBS buffer, pH 7.4. From the fluorescence enhancement profile of CPA, the fraction of ligand bound protein (f) can be calculated using: [drawing 1] (1) where F0 is the fluorescence of protein sample when no CPA has been added, F is the protein fluorescence at any given CPA concentration and F420 is the protein fluorescence in the presence of 3 µM of CPA. In the case of one ligand binding site, f follows a hyperbolic dependence upon ligand concentration given by: [drawing 2] […] Therefore, the binding of CPA to COMPcc is consistent with hyperbolic one site binding and the experimentally determined binding constant was 0.7±0.1 µM.

Test [4] deals with COMPcc. As to conditions: wild type COMPcc; ref [9], [27]; cited from earlier work.
In test [5] the test system is Q54I. As to conditions: Q54I mutant; ref [9], [27]; cited from earlier work.

Broadly, the Kd is the equilibrium constant for the complex coming apart.

Regarding `CCCCCCCC/C=C/CCCCCCCC(=O)O` [18:1 trans-9 elaidic acid], the “increase of midpoint transition temperature (Tm) of unfolding” value (“increase … of unfolding” for short) in test [1] is 10 °C.
As for `CCCCCCCCCCCCCC(=O)O` [C14:0 [Myristic acid], Myristic acid], in test [2], the Kd is 800 ± 100 nM, the “Interaction Free Energy” value is -8.31 ± 0.07 kcal/mol and the IC50 turned out to be 320 ± 50 nM.
As to `CCCCCCCC/C=C\CCCCCCCC(=O)O` [C18:1 [Oleic acid], Oleic acid], in test [2], the Kd is 900 ± 100 nM, the “Interaction Free Energy” value is -8.24 ± 0.06 kcal/mol and the IC50 came to 390 ± 50 nM.
The corresponding values for `CCCCCCCCCCCCCCCCCCCC(=O)O` [C20:0 [Arachidic acid], Arachidic acid] are 700 ± 100 nM, -8.42 ± 0.08 kcal/mol and 280 ± 40 nM.
With `c1ccccc1` [benzene], in test [1], the “increase … of unfolding” value was 2 °C.
For `CC\C=C/C=C/C=C/C=C\CCCCCCCC(=O)O` [cis-Parinaric acid], the “Interaction Free Energy” value in test [3] (from Kd of direct CPA binding) was -8.42 ± 0.08 kcal/mol. In addition, the Kd in test [3] (hyperbolic one-site binding, excitation 320 nm, emission 420 nm, 1× PBS pH 7.4, 25°C) came out at 700 ± 100 nM.
Consider `C1CCCCC1` [cyclohexane], for which the “increase … of unfolding” value in test [1] is 2 °C.
With `CC1=C(/C=C/C(C)=C/C=C/C(C)=C/CO)C(C)(C)CCC1` [vitamin A], the results for the “Interaction Free Energy” value in test [4] and in test [5] were -8.4 kcal/mol and -8.3 kcal/mol, respectively. Further, the results for the Kd in test [4] and in test [5] were 600 nM and 800 nM, respectively.
Take `C=C1CC[C@H](O)C/C1=C/C=C1\CCC[C@]2(C)[C@@H]([C@H](C)CCCC(C)C)CC[C@@H]12` [vitamin D3]: the “increase … of unfolding” value in test [1] was 8 °C.
